This note sets out measurements from paper PMC9332802, “Structure–Activity Relationship of New Chimeric Analogs of Mastoparan from the Wasp Venom Paravespula lewisii” (International Journal of Molecular Sciences, 2022).

Common to all, as to assay: microbe, parasite or virus in culture
Holding throughout (format): cell-based

The subject of experiment [1] is Pseudomonas aeruginosae NCTC 6749. The settings on record: for MIC P. aeruginosae: broth microdilution (CLSI), Mueller–Hinton broth, 37 °C, peptide 0.125 to […], no visible growth, triplicate. As to the method: (§1) Antimicrobial activity of peptides was examined against three reference strains: Staphylococcus aureus NCTC 4163, Escherichia coli NCTC 8196 and Pseudomonas aeruginosae NCTC 6749 dedicated for the determination of antibacterial activity. The bacterial strains were stored in glycerol stock (Sigma-Aldrich, St. Louis, MO, USA) at −80 °C. Before testing, the strains were cultured aerobically in Tryptic Soy Agar (BD DIFCO, Franklin Lakes, NJ, USA) at 37 °C for 20 h. The susceptibility of microorganisms to the peptides was determined by the broth microdilution assay according to the procedures outlined by CLSI [49]. […] In order to prepare the bacterial suspension, an overnight culture of bacteria in Tryptic Soy Broth (BD DIFCO, Franklin Lakes, NJ, USA) was diluted in sterile saline to a final concentration of approximately 10^7 CFU/mL of bacteria. Aliquots (5 µL) of bacterial suspension were added to each peptide solution. The sterility control (containing the tested peptide in broth) and the growth control (containing the reference strain in broth without the tested peptide) were also set up. The plates were incubated at 37 °C under aerobic conditions. The results are expressed as the minimal inhibitory concentration (MIC) of the compounds in question. The MIC was defined as the lowest concentration at which no visible growth of bacteria (no turbidity) was observed. The assay was performed in triplicate.
A general note: Broth dilution looks for growth in wells or tubes with falling amounts of substance.

Experiment [2] relates to Escherichia coli NCTC 8196. The method, then: as §1
Experiment [3] deals with Staphylococcus aureus NCTC 4163. The settings on record: read-out: MIC S. aureus. The method, then: as §1
Where [4] appears, read: same MIC expressed as molar concentration, broth microdilution (CLSI), Mueller–Hinton broth, 37 °C, triplicate.

In brackets after ≈: the same amount, converted by molar mass. Where two headings read alike, the source gives them in different places. Ends that are not written are not given here.

For the compound `CNC(C)C1CCC(N)C(OC2C(N)CC(N)C(OC3OCC(C)(O)C(NC)C3O)C2O)O1` (stereo not drawn) [Gentamicin, gentamicin, reference compound], the MIC was 0.25 µg/mL (≈ 0.523 µM) in experiment [1] (Pseudomonas, NCTC6749, read-out: MIC P. aeruginosae); 1 µg/mL in experiment [2] (Escherichia coli, NCTC8196); 2.1 µM in experiment [2] (Escherichia coli, NCTC8196, same MIC expressed as molar concentration, broth microdilution (CLSI), Mueller–Hinton broth, 37 °C, triplicate); 0.5 µg/mL in experiment [3] (Staphylococcus aureus, NCTC4163); 1.1 µM in experiment [3] (Staphylococcus aureus, NCTC4163, same MIC expressed as molar concentration, broth microdilution (CLSI), Mueller–Hinton broth, 37 °C, triplicate). Take `CC[C@H](C)[C@H](N)C(=O)N[C@@H](CC(N)=O)C(=O)N[C@@H](CC(C)C)C(=O)N[C@@H](CCCCN)C(=O)N[C@@H](C)C(=O)N[C@@H](CC(C)C)C(=O)N[C@@H](C)C(=O)N[C@@H](C)C(=O)N[C@@H](CC(C)C)C(=O)N[C@@H](C)C(=O)N[C@@H](CCCCN)C(=O)N[C@@H](CCCCN)C(=O)N[C@H](C(=O)N[C@@H](CC(C)C)C(N)=O)[C@@H](C)CC` [MP, mastoparan]: in experiment [1], the “MIC P. aeruginosae” value is 256 µg/mL (≈ 173 µM). Moreover, the MIC in experiment [2] (setting [4]) was determined as 21.6 µM; in experiment [3] (setting [4]), 5.4 µM.

Regarding `CC[C@H](C)[C@H](NC(=O)[C@H](CCCCN)NC(=O)[C@H](CCCCN)NC(=O)[C@H](C)NC(=O)[C@H](CC(C)C)NC(=O)[C@H](C)NC(=O)[C@H](C)NC(=O)[C@H](CC(C)C)NC(=O)[C@H](C)NC(=O)[C@H](CCCCN)NC(=O)[C@H](CC(C)C)NC(=O)[C@H](CC(N)=O)NC(=O)[C@@H](NC(=O)[C@H](CCCCN)NC(=O)CNC(=O)[C@H](CC(C)C)NC(=O)[C@H](CC(C)C)NC(=O)[C@H](Cc1ccc(O)cc1)NC(=O)CNC(=O)[C@H](C)N)[C@@H](C)CC)C(=O)N[C@@H](CC(C)C)C(N)=O` [TP10, transportan 10, reference compound], the “MIC P. aeruginosae” value in experiment [1] amounted to 256 µg/mL (≈ 117 µM). The same measure, in the same setting: the same measure for `CC[C@H](C)[C@H](NC(=O)[C@H](CCCCN)NC(=O)[C@H](CCCCN)NC(=O)[C@H](C)NC(=O)[C@H](CC(C)C)NC(=O)[C@H](C)NC(=O)[C@H](C)NC(=O)[C@H](CC(C)C)NC(=O)[C@H](C)NC(=O)[C@H](CCCCN)NC(=O)[C@H](CC(C)C)NC(=O)[C@H](CC(N)=O)NC(=O)[C@@H](NC(=O)[C@H](CCCCN)NC(=O)CNC(=O)[C@H](CC(C)C)NC(=O)[C@H](CC(C)C)NC(=O)[C@H](Cc1ccc(O)cc1)NC(=O)CNC(=O)[C@H](C)NC(=O)[C@H](CO)NC(=O)[C@H](CC(N)=O)NC(=O)[C@H](CC(C)C)NC(=O)[C@@H](NC(=O)[C@H](Cc1c[nH]c2ccccc12)NC(=O)CN)[C@@H](C)O)[C@@H](C)CC)C(=O)N[C@@H](CC(C)C)C(N)=O` [TP, transportan, reference compound]: more than 256 µg/mL; for “AGYLLGINLKALAALAKKILYKPITNF-NH2 [[desLys^7] TP10-[Lys^2, Ile^4] RIP]”: more than 256 µg/mL; for “GWTLNSAGYLLGPINLKALAALAKKIL-NH2 [Galp, galparan, reference compound]”: more than 256 µg/mL. Consider “INLKALAALAKKILYKPITNF-NH2 [MP-[Lys^2, Ile^4] RIP]”, for which the “MIC P. aeruginosae” value in experiment [1] is more than 256 µg/mL. Same read-out and setting: the same measure for KALAALAKKIL-NH2 [MP (4–14)]: more than 256 µg/mL; for “KALAALAKKILYKPITNF-NH2 [MP (4–14)-[Lys^2, Ile^4] RIP]”: more than 256 µg/mL; for KALAALAKKILYSPWTNF-NH2 [MP (4–14)-RIP]: more than 256 µg/mL. On to “YKPITNF-NH2 [[Lys^2, Ile^4] RIP, reference compound]”, for which the “MIC P. aeruginosae” value in experiment [1] was more than 256 µg/mL. Still for that read-out and setting: the same measure for “YKPITNFINLKALAALAKKIL-NH2 [[Lys^2, Ile^4] RIP-MP]”: more than 256 µg/mL.
